# Experimental data published in ChEMBL document CHEMBL3272225, “Potential carcinostatics. Synthesis and biological properties of d- and 1-beta,beta-difluoroaspartic acid and beta,beta-difluoroasparagine” (J Med Chem, 1977).
# Calls of active or inactive are those of the source. The rule behind the calls is not given here.
# Legend:
# [1] = Growth inhibition of mouse 3T3-F cells at 10 ug/ml assessed as cell growth after 24 hrs by Coulter counting method; format: functional
# [2] = Growth inhibition of mouse 3T3-F cells assessed as cell growth at 100 ug/ml after 24 hrs by Coulter counting method; format: functional
# Mus musculus = species: Mus musculus; test: Growth inhibition of mouse 3T3-F cells assessed as cell growth after 24 hrs by Coulter counting method; format: functional
# L5178Y = test: Antitumor activity against mouse L5178Y cells allografted in CDF-1 mouse assessed as cytostatic activity administered on day 1 to day 9 post challenge; format: functional
# [3] = Competitive inhibition of aspartate aminotransferase in rat liver homogenate by Lineweaver-Burk plot method; format: tissue-based
structure (smiles),measurement,setting,value
N[C@@H](C(=O)O)C(F)(F)C(=O)O,Cell growth at 10 µg/mL,[1],75%
same,Cell growth at 100 µg/mL,[2],12%
N[C@H](C(=O)O)C(F)(F)C(=O)O,Activity,Mus musculus,inactive
NC(C(=O)O)C(F)(F)C(=O)O (racemic),Activity,L5178Y,inactive
same,Ki,[3],1000 µM
NC(=O)C(F)(F)C(N)C(=O)O (racemic),Activity,L5178Y,inactive
